Experimental data published in patent US20180282331A1, “7-Oxo -6-(sulfooxy)- 1,6-diazabicyclo [3.2.1] octane containing compounds and their use in treatment of bacterial infections (changed by PCT to: 7-OXO -6-(SULFOOXY)- 1,6-DIAZABICYCLO [3.2.1] OCTANE CONTAINING COMPOUNDS AND THEIR USE IN TREATMENT OF BACTERIAL INFECTIONS” (WOCKHARDT LIMITED, priority 2015, published 2018).
Read-outs that look alike come from different tables or passages of the source.

Experiments:
Experiment in all cases: MIC, agar dilution (MHA), compound alone
Assay type in all cases: cell-based
K. pneumoniae H525 = settings: K. pneumoniae H525, compound alone, MHA, 35° C., 18 hours
Protocol: (§1) The biological activity of representative compounds according to the invention against various bacterial strains was investigated. The Minimum Inhibitory Concentration (MIC) determination for the combinations was carried out in Muller Hinton Agar (MHA) (BD, USA) according to Clinical and Laboratory Standards Institute (CLSI) recommendations, (Clinical and Laboratory Standards Institute (CLSI), Performance Standards for Antimicrobial Susceptibility Testing, 20th Informational Supplement, M 100-S20, Volume 30, No. 1, 2010). In short, the test strains were adjusted to deliver about 10^4 CFU per spot with a multipoint inoculator (Applied Quality Services, UK). The plates were poured with MHA containing doubling concentration range of representative compounds according to present invention. The plates were inoculated and were incubated at 35° C. for 18 hours. […] The Table 5 depicts the antibacterial activity profile of compounds according to present invention against various multidrug resistant bacterial strains.

E. coli NCTC 13352 = settings: E. coli NCTC 13352, compound alone, MHA, 35° C., 18 hours
Protocol: as §1

E. coli 7 MP = settings: E. coli 7 MP, compound alone, MHA, 35° C., 18 hours
Protocol: as §1

E. coli NCTC 13353 = settings: E. coli NCTC 13353, compound alone, MHA, 35° C., 18 hours
Protocol: as §1

[1] = test system: K. pneumoniae ATCC 700603; settings: K. pneumoniae ATCC 700603, compound alone, MHA, 35° C., 18 hours
Protocol: as §1

E. coli M 50 = settings: E. coli M 50, compound alone, MHA, 35° C., 18 hours
Protocol: as §1

K. pneumoniae H521 = settings: K. pneumoniae H521, compound alone, MHA, 35° C., 18 hours
Protocol: as §1

[2] = Klebsiella pneumoniae, read-out: MIC
[3] = Escherichia coli, NCTC13352, read-out: MIC
[4] = Escherichia coli, read-out: MIC
[5] = Escherichia coli, NCTC13353, read-out: MIC
[6] = Klebsiella pneumoniae, ATCC700603, read-out: MIC
[7] = Escherichia coli, M50, read-out: MIC

Row | SMILES | MIC (K. pneumoniae H525; [2]) | MIC (E. coli NCTC 13352; [3]) | MIC (E. coli 7 MP; [4]) | MIC (E. coli NCTC 13353; [5]) | MIC [1, 6] | MIC (E. coli M 50; [7]) | MIC (K. pneumoniae H521; [2]) | MIC (K. pneumoniae H525) | MIC (E. coli NCTC 13352) | MIC (E. coli 7 MP) | MIC (E. coli NCTC 13353) | MIC [1] | MIC (E. coli M 50) | MIC (K. pneumoniae H521)
1 | CO/N=C(\C(=O)N[C@@H]1C(=O)N2C(C(=O)[O-])=C(C[N+]3(C)CCCC3)CS[C@H]12)c1csc(N)n1 [Cefepime, reference compound] | 32 µg/mL | 4 µg/mL | 16 µg/mL | 32 µg/mL | 0.5 µg/mL | > 32 µg/mL | 32 µg/mL | – | – | – | – | – | – | –
2 | O=C(Cn1ccnc1)NNC(=O)[C@@H]1CC[C@@H]2CN1C(=O)N2OS(=O)(=O)O.[Na] [Example 2, Sodium salt of (2S,5R)-N′-(1H-imidazol-1-ylacetyl)-7-oxo-6-(sulfooxy)-1,6-diazabicyclo[3.2.1]octane-2-carbohydrazide] | – | – | – | – | – | – | – | 1 µg/mL | 0.5 µg/mL | 1 µg/mL | 0.25 µg/mL | >32 µg/mL | 0.5 µg/mL | 1 µg/mL
3 | O=C(Cn1ncnn1)NNC(=O)[C@@H]1CC[C@@H]2CN1C(=O)N2OS(=O)(=O)[O-].[Na+] [Example 4] | 1 µg/mL | 0.5 µg/mL | 1 µg/mL | 0.5 µg/mL | > 32 µg/mL | 0.5 µg/mL | 1 µg/mL | – | – | – | – | – | – | –
4 | CCOC(=O)c1nnnn1CC(=O)NNC(=O)[C@@H]1CC[C@@H]2CN1C(=O)N2OS(=O)(=O)[O-].[Na+] [Example 5] | 2 µg/mL | 0.5 µg/mL | 2 µg/mL | 0.5 µg/mL | > 32 µg/mL | 1 µg/mL | 2 µg/mL | – | – | – | – | – | – | –
5 | O=C(Cn1nccn1)NNC(=O)[C@@H]1CC[C@@H]2CN1C(=O)N2OS(=O)(=O)[O-].[Na+] [Example 6] | 2 µg/mL | 1 µg/mL | 2 µg/mL | 1 µg/mL | > 32 µg/mL | 1 µg/mL | 2 µg/mL | – | – | – | – | – | – | –
6 | O=C(Cn1ccnn1)NNC(=O)[C@@H]1CC[C@@H]2CN1C(=O)N2OS(=O)(=O)[O-].[Na+] [Example 7] | 1 µg/mL | 0.5 µg/mL | 1 µg/mL | 0.5 µg/mL | > 32 µg/mL | 0.5 µg/mL | 1 µg/mL | – | – | – | – | – | – | –
7 | O=C(Cn1cncn1)NNC(=O)[C@@H]1CC[C@@H]2CN1C(=O)N2OS(=O)(=O)[O-].[Na+] [Example 8] | 1 µg/mL | 0.5 µg/mL | 2 µg/mL | 0.5 µg/mL | > 32 µg/mL | 0.5 µg/mL | 1 µg/mL | – | – | – | – | – | – | –
8 | Cc1nnnn1CC(=O)NNC(=O)[C@@H]1CC[C@@H]2CN1C(=O)N2OS(=O)(=O)[O-].[Na+] [Example 9] | 1 µg/mL | 0.5 µg/mL | 1 µg/mL | 0.25 µg/mL | > 32 µg/mL | 0.25 µg/mL | 4 µg/mL | – | – | – | – | – | – | –
9 | O=C(Cn1cccn1)NNC(=O)[C@@H]1CC[C@@H]2CN1C(=O)N2OS(=O)(=O)[O-].[Na+] [Example 11] | > 32 µg/mL | 1 µg/mL | 4 µg/mL | 1 µg/mL | > 32 µg/mL | 1 µg/mL | 32 µg/mL | – | – | – | – | – | – | –
10 | CCOC(=O)Cc1nnnn1CC(=O)NNC(=O)[C@@H]1CC[C@@H]2CN1C(=O)N2OS(=O)(=O)[O-].[Na+] [Example 12] | 4 µg/mL | 0.5 µg/mL | 2 µg/mL | 1 µg/mL | > 32 µg/mL | 2 µg/mL | 4 µg/mL | – | – | – | – | – | – | –
11 | CCOC(=O)Cc1nnn(CC(=O)NNC(=O)[C@@H]2CC[C@@H]3CN2C(=O)N3OS(=O)(=O)[O-])n1.[Na+] [Example 13] | 32 µg/mL | 1 µg/mL | 2 µg/mL | 1 µg/mL | > 32 µg/mL | 2 µg/mL | 32 µg/mL | – | – | – | – | – | – | –
12 | NC(=O)Cc1nnn(CC(=O)NNC(=O)[C@@H]2CC[C@@H]3CN2C(=O)N3OS(=O)(=O)[O-])n1.[Na+] [Example 14] | 4 µg/mL | 1 µg/mL | 1 µg/mL | 1 µg/mL | > 32 µg/mL | 0.5 µg/mL | 4 µg/mL | – | – | – | – | – | – | –
13 | NC(=O)Cc1nnnn1CC(=O)NNC(=O)[C@@H]1CC[C@@H]2CN1C(=O)N2OS(=O)(=O)[O-].[Na+] [Example 15] | 2 µg/mL | 0.5 µg/mL | 1 µg/mL | 0.5 µg/mL | > 32 µg/mL | 0.5 µg/mL | 2 µg/mL | – | – | – | – | – | – | –
14 | NC(=O)c1nnn(CC(=O)NNC(=O)[C@@H]2CC[C@@H]3CN2C(=O)N3OS(=O)(=O)[O-])n1.[Na+] [Example 16] | 2 µg/mL | 1 µg/mL | 2 µg/mL | 1 µg/mL | > 32 µg/mL | 1 µg/mL | 2 µg/mL | – | – | – | – | – | – | –
15 | NC(=O)c1nnnn1CC(=O)NNC(=O)[C@@H]1CC[C@@H]2CN1C(=O)N2OS(=O)(=O)[O-].[Na+] [Example 17] | 1 µg/mL | 0.25 µg/mL | 0.5 µg/mL | 0.25 µg/mL | > 32 µg/mL | 0.25 µg/mL | 1 µg/mL | – | – | – | – | – | – | –
16 | O=C(Cn1cccc1)NNC(=O)[C@@H]1CC[C@@H]2CN1C(=O)N2OS(=O)(=O)[O-].[Na+] [Example 18] | 1 µg/mL | 0.5 µg/mL | 1 µg/mL | 0.25 µg/mL | > 32 µg/mL | 0.5 µg/mL | 1 µg/mL | – | – | – | – | – | – | –
17 | C[C@@H](C(=O)NNC(=O)[C@@H]1CC[C@@H]2CN1C(=O)N2OS(=O)(=O)[O-])n1ccnc1.[Na+] [Example 20] | 2 µg/mL | 0.5 µg/mL | 1 µg/mL | 0.5 µg/mL | > 32 µg/mL | 0.5 µg/mL | 2 µg/mL | – | – | – | – | – | – | –
18 | CCOC(=O)c1nccn1CC(=O)NNC(=O)[C@@H]1CC[C@@H]2CN1C(=O)N2OS(=O)(=O)[O-].[Na+] [Example 21] | 8 µg/mL | 2 µg/mL | 4 µg/mL | 2 µg/mL | > 32 µg/mL | 2 µg/mL | 8 µg/mL | – | – | – | – | – | – | –
19 | Nc1nnnn1CC(=O)NNC(=O)[C@@H]1CC[C@@H]2CN1C(=O)N2OS(=O)(=O)O [Example 24, (2S,5R)-N′-[(5-amino-1H-tetrazol-1-yl)acetyl]-7-oxo-6-(sulfooxy)-1,6-diazabicyclo[3.2.1]octane-2-carbohydrazide] | 2 µg/mL | 1 µg/mL | 2 µg/mL | 0.5 µg/mL | > 32 µg/mL | 0.5 µg/mL | 2 µg/mL | – | – | – | – | – | – | –
20 | NCc1nnnn1CC(=O)NNC(=O)[C@@H]1CC[C@@H]2CN1C(=O)N2OS(=O)(=O)O [Example 25] | 1 µg/mL | 1 µg/mL | 2 µg/mL | 1 µg/mL | > 32 µg/mL | 0.5 µg/mL | 1 µg/mL | – | – | – | – | – | – | –
21 | NCc1nnn(CC(=O)NNC(=O)[C@@H]2CC[C@@H]3CN2C(=O)N3OS(=O)(=O)O)n1 [Example 26] | 1 µg/mL | 0.5 µg/mL | 1 µg/mL | 0.5 µg/mL | > 32 µg/mL | 0.5 µg/mL | 1 µg/mL | – | – | – | – | – | – | –
22 | Nc1ncn(CC(=O)NNC(=O)[C@@H]2CC[C@@H]3CN2C(=O)N3OS(=O)(=O)O)n1 [Example 27] | 2 µg/mL | 1 µg/mL | 2 µg/mL | 1 µg/mL | > 32 µg/mL | 1 µg/mL | 2 µg/mL | – | – | – | – | – | – | –
23 | NCCc1nnn(CC(=O)NNC(=O)[C@@H]2CC[C@@H]3CN2C(=O)N3OS(=O)(=O)O)n1 [Example 28] | 0.5 µg/mL | 0.5 µg/mL | 1 µg/mL | 0.25 µg/mL | > 32 µg/mL | 0.25 µg/mL | 0.5 µg/mL | – | – | – | – | – | – | –
24 | NCCCc1nnn(CC(=O)NNC(=O)[C@@H]2CC[C@@H]3CN2C(=O)N3OS(=O)(=O)O)n1 [Example 30] | 0.5 µg/mL | 0.5 µg/mL | 1 µg/mL | 0.25 µg/mL | > 32 µg/mL | 0.5 µg/mL | 0.5 µg/mL | – | – | – | – | – | – | –
25 | NCCCc1nnnn1CC(=O)NNC(=O)[C@@H]1CC[C@@H]2CN1C(=O)N2OS(=O)(=O)O [Example 31] | 1 µg/mL | 0.5 µg/mL | 1 µg/mL | 0.5 µg/mL | > 32 µg/mL | 0.5 µg/mL | 1 µg/mL | – | – | – | – | – | – | –
26 | NCCCCc1nnn(CC(=O)NNC(=O)[C@@H]2CC[C@@H]3CN2C(=O)N3OS(=O)(=O)O)n1 [Example 32] | 0.5 µg/mL | 0.5 µg/mL | 1 µg/mL | 0.25 µg/mL | > 32 µg/mL | 0.5 µg/mL | 0.5 µg/mL | – | – | – | – | – | – | –
27 | NCCCCc1nnnn1CC(=O)NNC(=O)[C@@H]1CC[C@@H]2CN1C(=O)N2OS(=O)(=O)O [Example 33] | 0.5 µg/mL | 1 µg/mL | 1 µg/mL | 0.5 µg/mL | > 32 µg/mL | 0.5 µg/mL | 4 µg/mL | – | – | – | – | – | – | –
